Results published in publication PMC9477487, “Multitarget drugs as potential therapeutic agents for alzheimer’s disease. A new family of 5-substituted indazole derivatives as cholinergic and BACE1 inhibitors” (Journal of Enzyme Inhibition and Medicinal Chemistry, 2022).

Tests used:
[1] = target: T1, BACE1 (Homo sapiens, UniProt P56817); assay: BACE1 enzymatic FRET assay; type: biochemical; details: for IC50: pH 4.5, mean ± SEM
T1 construct: purchased Invitrogen
Protocol: The BACE1 ([…]) assay was carried out according to the manufacturer’s described protocol which is available from Invitrogen[36].
Briefly, BACE1 in vitro assays were carried out using fluorescence resonance energy transfer (FRET). An APP-based peptide substrate (rhodamine-EVNLDAEFK-quencher, Km of 20 μM) carrying the Swedish mutation and containing rhodamine as a fluorescence donor and a quencher acceptor at each end was used. The intact substrate is weakly fluorescent and becomes highly fluorescent upon enzymatic cleavage. The assays were conducted in 50 mM sodium acetate buffer, pH 4.5, at a final enzyme concentration of 1 U/mL. Inhibitor screening was performed at 10 μM. The mixture was incubated for 60 min at 25 °C under dark conditions and then stopped with 2.5 M sodium acetate. Fluorescence was measured with a FLUOstar Optima (BMG Labtechnologies GmbH, Offenburg, Germany) microplate reader at 545 nm excitation and 585 nm emission. The assay kit was validated by the manufacturer.

[2] = test system: SH-SY5Y human neuroblastoma cells; assay: Amyloid-beta peptide neurotoxicity, neuroprotection in SH-SY5Y cells (MTT); type: cell-based; details: 24 h
Protocol: SH-SY5Y human neuroblastoma cells were obtained from American Type Culture Collection. Cells were maintained at 37 °C in a 5% CO2 humidified atmosphere in DMEM-Glutamax supplemented with heat-inactivated 10% foetal bovine serum and 1% penicillin/streptomycin. All experiments with Aβ1–42 used DMEM-Glutamax without phenol in the media.
The compounds were dissolved in 100% dimethyl sulphoxide (DMSO) as a 10 mM stock and diluted with culture medium to final concentrations. Aβ1–42 powder (AnaSpec, Inc., San Jose, CA) was dissolved in acetic acid (0.1 M) obtaining a 2 μg/μL stock. Then Aβ1-42 was oligomerised in no phenol red DMEM for 24 h at 37 °C. The final concentration in cells cultures was 5 μM. All dilutions of stock were prepared fresh before addition to the culture medium.
SH-SY5Y cells were treated with 5 μM Aβ1-42 for 24 h and pre-treated or not for 1 h with increasing concentrations of compounds. After treatment, cultures were processed for a cell viability assay using MTT assay.
(§1) Cell viability was measured using the 3-(4,5-Dimethylthiazol-2-yl)-2,5-diphenyltetrazolium bromide (MTT) assay, based on the ability of viable cells to reduce yellow MTT to blue formazan. Briefly, cells cultured in 96-well plates and treated with the indicated compounds for 16 h were incubated with MTT (0.5 mg/ml, 4 h) and subsequently solubilised in DMSO. The extent of reduction of MTT was quantified by absorbance measurement at 595 nm according to the manufacturer’s protocol.

[3] = Oxygen radical absorbance capacity assay (ORAC-FL); details: pH 7.4
Protocol: The ORAC-FL method of Ou et al.[37], partially modified by Dávalos et al.[38], was followed, using a FLUOstar Optima (BMG Labtechnologies GmbH, Offenburg, Germany) with 485 excitation and 520 emission filters. 2,2′-Azobis-(amidinopropane) dihydrochloride (AAPH), (±)-6-hydroxy-2,5,7,8-tetramethylchromane-2-carboxylic acid (trolox) and fluorescein (FL) were purchased from Sigma-Aldrich. The reaction was carried out in 75 mM phosphate buffer (pH 7.4) and the final reaction mixture was 200 µL. […] The mixture was pre-incubated for 30 min at 37 °C and then AAPH solution (25 µL, 240 mM) was added rapidly using a multichannel pipette. The microplate was immediately placed in the reader and the fluorescence was recorded every 90 s. for 90 min. The microplate was automatically shaken prior to each reading. Samples were measured at four different concentrations (10^−1 µM). A blank (FL + AAPH in phosphate buffer) instead of the sample solution and four calibration solutions using trolox (10^−1 µM) was also used in each assay. All of the reaction mixtures were prepared in duplicate and at least three independent assays were performed for each sample. Raw data were exported from the Fluostar optima Software to an Excel sheet for further calculations. Antioxidant curves (fluorescence vs. time) were represented and the area under the curve (AUC) is calculated as: AUC =f1/f0+fi/f0+ … +f34/f0+ (f35/f0) where fo = initial fluorescence reading at 0 min and fi = fluorescence reading at time i. The net AUC is obtained by subtracting the AUC of the blank from that of a sample. The relative Trolox equivalent ORAC value is calculated as: Relative ORAC value =[(AUC sample - AUC blank)/(AUCT rolox - AUC blank)](molarity of trolox/molarity of sample)

[4] = test system: Raw 264.7 cells; assay: Cell viability (MTT) of Raw 264.7 cells; type: cell-based
Protocol: as §1

[5] = target: T2, BuChE from human serum (Homo sapiens, UniProt P06276); assay: In vitro BuChE inhibition assay (Ellman); type: biochemical; details: for IC50: mean ± SEM, 3 experiments, butyrylthiocholine substrate
T2 construct: BuChE from human serum (EC 3.1.1.8); purchased Sigma; host or cells: human serum (tissue-derived)
Protocol: (§2) AChE from human erythrocytes (EC 3.1.1.7) (min. 500 units/mg protein in buffered aqueous solution) and BuChE from human serum (EC 3.1.1.8) (3 units/mg protein, lyophilised powder) were purchased from Sigma.
(§3) Compounds were evaluated in 100 mM phosphate buffer pH 8.0 at 30 °C, using acetylthiocholine and butyrylthiocholine (0.4 mM) as substrates, respectively. In both cases, 5,5-dithio-bis(2-nitrobenzoic) acid (DTNB, Ellman’s reagent, 0.2 mM) was used and the values of IC50 were calculated by UV spectroscopy from the absorbance changes at 412 nm. Experiments were performed in triplicate.

[6] = target: T3, BuChE (Homo sapiens, UniProt P06276); assay: Kinetic study of BuChE inhibition (Lineweaver-Burk plots); type: biochemical; design: key to Type of Inhibition (BuChE): M: mixed
T3 construct: BuChE from human serum (EC 3.1.1.8); purchased Sigma; host or cells: human serum (tissue-derived)
Protocol: To investigate the mechanism of action of the compounds on AChE or BuChE, a kinetic analysis was performed. The experiments were carried out using combinations of four substrate concentrations and three inhibitor concentrations. Double-reciprocal Lineweaver–Burk plots of the data obtained, in which each point is the mean of three different experiments, were analysed.
Competitive inhibitors have the same y-intercept as uninhibited enzymes (since Vmax is unaffected by competitive inhibitors the inverse of Vmax also doesn’t change), but there are different slopes and x-intercepts. Non-competitive inhibition produces plots with the same x-intercept as uninhibited enzyme (Km is unaffected) but different slopes and y-intercepts. Uncompetitive inhibition causes different intercepts on both the y- and x-axes, but the same slope. Mixed inhibitors cause intersects above or below the x-axes.
The Ki, values were determined by fitting the kinetic data to a competitive, non-competitive, or mixed inhibition model by nonlinear regression analysis using GraphPad Prism[35].

[7] = target: T4, AChE from human erythrocytes (Homo sapiens, UniProt P22303); assay: In vitro AChE inhibition assay (Ellman); type: biochemical; details: for inhibition at 10 µM: 10 µM compound, read-out: AChE percentage of inhibition at 10 µM; for IC50: mean ± SEM, 3 experiments, acetylthiocholine substrate
T4 construct: AChE from human erythrocytes (EC 3.1.1.7); purchased Sigma; host or cells: human erythrocytes (tissue-derived)
Protocol: as §2, §3

[8] = test system: Raw 264.7 cells; assay: Nitrite determination (Griess) in LPS-stimulated Raw 264.7 cells; type: cell-based, murine; details: LPS 0.4 µg/mL, 24 h
Protocol: The content of nitrite, one of the end-products of NO oxidation, was monitored by a procedure based on the diazotidation of nitrite by sulphanilic acid (Griess reaction). Twenty-four hours after the incubation of Raw 264.7 cells with 0.4 µg/mL of LPS, 50 µL of sample aliquots were mixed with 50 µL of Griess reagent in 96-well plates and incubated at room temperature for 15 min. The absorbance (520 nm) of the mixture was measured on a microplate reader. The concentration of nitrite was calculated with the linear equation derived from the standard curve generated by known concentrations of sodium nitrite.

[9] = 10 µM compound added 1 h prior to 5 µM Aβ

T3 sequence (P06276 29-602): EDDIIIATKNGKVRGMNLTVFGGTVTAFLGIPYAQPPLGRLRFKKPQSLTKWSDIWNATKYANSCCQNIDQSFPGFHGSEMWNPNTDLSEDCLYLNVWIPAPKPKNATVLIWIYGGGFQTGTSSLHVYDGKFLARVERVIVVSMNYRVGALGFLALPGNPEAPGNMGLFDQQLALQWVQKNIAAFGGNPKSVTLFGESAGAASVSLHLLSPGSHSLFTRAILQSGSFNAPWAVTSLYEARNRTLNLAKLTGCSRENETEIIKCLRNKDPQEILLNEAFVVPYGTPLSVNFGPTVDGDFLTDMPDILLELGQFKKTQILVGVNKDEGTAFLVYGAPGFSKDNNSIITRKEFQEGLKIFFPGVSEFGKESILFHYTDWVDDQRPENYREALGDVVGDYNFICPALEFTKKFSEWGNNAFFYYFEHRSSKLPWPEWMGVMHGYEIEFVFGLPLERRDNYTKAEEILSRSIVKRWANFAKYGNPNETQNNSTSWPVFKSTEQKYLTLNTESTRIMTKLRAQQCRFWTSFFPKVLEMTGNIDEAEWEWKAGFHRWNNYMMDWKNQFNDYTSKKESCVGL
T2 sequence (P06276 29-602): as above
T4 sequence (P22303 32-617 isoform P22303-2 limits assumed): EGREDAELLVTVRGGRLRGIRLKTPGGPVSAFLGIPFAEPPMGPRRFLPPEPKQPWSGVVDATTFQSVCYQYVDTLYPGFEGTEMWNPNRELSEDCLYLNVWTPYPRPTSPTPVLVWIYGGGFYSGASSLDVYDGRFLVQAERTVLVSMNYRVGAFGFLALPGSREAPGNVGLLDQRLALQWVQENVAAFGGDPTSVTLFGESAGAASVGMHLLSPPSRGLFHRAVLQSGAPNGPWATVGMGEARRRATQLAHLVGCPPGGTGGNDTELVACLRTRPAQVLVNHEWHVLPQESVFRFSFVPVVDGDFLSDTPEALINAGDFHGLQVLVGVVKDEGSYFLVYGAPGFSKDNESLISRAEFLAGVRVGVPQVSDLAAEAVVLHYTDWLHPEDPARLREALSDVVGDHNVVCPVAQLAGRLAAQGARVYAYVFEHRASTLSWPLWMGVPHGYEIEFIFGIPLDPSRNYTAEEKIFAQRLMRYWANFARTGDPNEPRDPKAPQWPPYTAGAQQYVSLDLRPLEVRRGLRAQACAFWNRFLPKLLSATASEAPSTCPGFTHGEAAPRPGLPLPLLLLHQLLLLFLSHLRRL
T1 sequence (P56817 46-501): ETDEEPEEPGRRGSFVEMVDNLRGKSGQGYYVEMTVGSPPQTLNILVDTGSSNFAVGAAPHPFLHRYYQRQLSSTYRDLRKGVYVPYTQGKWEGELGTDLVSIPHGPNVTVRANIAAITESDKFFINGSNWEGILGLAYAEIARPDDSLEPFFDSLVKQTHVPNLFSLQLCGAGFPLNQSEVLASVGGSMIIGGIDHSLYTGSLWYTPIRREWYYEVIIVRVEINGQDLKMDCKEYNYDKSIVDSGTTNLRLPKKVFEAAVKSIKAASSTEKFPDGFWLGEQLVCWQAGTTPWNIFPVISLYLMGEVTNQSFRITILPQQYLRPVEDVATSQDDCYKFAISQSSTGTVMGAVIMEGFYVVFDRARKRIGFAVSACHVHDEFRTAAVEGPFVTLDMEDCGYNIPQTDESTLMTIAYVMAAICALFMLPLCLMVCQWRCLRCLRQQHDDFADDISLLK

| Compound | IC50 [1] | Aβ-induced death of SH-SY5Y cells [2, 9] | ORAC (Oxygen Radical Absorbance Capacity) [3] | Cytotoxicity on Raw 264.7 cells viability ([4]; 10 µM) | IC50 [5] | Type of Inhibition (BuChE) [6] | inhibition at 10 µM [7] | IC50 [7] | Aβ-induced death of SH-SY5Y cells ([2]; 5 µM compound added 1 h prior to 5 µM Aβ) | LPS-induced NO production (extracellular nitrite) ([8]; 10 µM compound) | LPS-induced NO production (extracellular nitrite) ([8]; 20, 30 and 40 µM compound) | Cytotoxicity on Raw 264.7 cells viability ([4]; 10, 20, 30, 40 µM) | inhibition at 10 µM ([1]; pH 4.5, 10 µM compound, read-out: BACE1 percentage of inhibition at 10 µM) | BuChE percentage of inhibition at 10 µM ([5]; 10 µM compound) | inhibition at 10 µM ([5]; 10 µM compound, read-out: BuChE percentage of inhibition at 10 µM) | BuChE inhibition mode of action (in words) [6] |
| --- | --- | --- | --- | --- | --- | --- | --- | --- | --- | --- | --- | --- | --- | --- | --- | --- |
| c1ccc(Cn2nc(OCc3cccc4ccccc34)c3cc(NCCCN4CCCCC4)ccc32)cc1 [Compound 1] | 2.7 ± 0.1 µM | significantly reduced cell death | 1.1 ± 0.1 μmol of Trolox equivalents/μmol of tested compound | show cytotoxicity | 3.2 ± 0.5 µM | M | 23% | > 10 µM |  |  |  |  |  |  |  |  |
| Clc1cccc(Cn2nc(OCc3ccccc3)c3cc(NCCCN4CCCCC4)ccc32)c1Cl [Compound 2] | 3.2 ± 0.2 µM |  | 0.7 ± 0.1 μmol of Trolox equivalents/μmol of tested compound | show cytotoxicity | 0.4 ± 0.04 µM | M | 27% | > 10 µM | able to prevent cell death |  |  |  |  |  |  |  |
| Clc1ccc(Cn2nc(OCc3cccc4ccccc34)c3cc(NCCCN4CCCCC4)ccc32)cc1Cl [Compound 3] | 2.1 ± 0.2 µM | significantly reduced cell death | 0.6 ± 0.1 μmol of Trolox equivalents/μmol of tested compound | did not show any significant cytotoxic effect | 0.17 ± 0.05 µM | M | 38% | > 10 µM |  | able to attenuate LPS-induced NO production |  |  |  |  |  |  |
| Clc1ccc(Cn2nc(OCc3ccc4ccccc4c3)c3cc(NCCCN4CCCCC4)ccc32)cc1Cl [Compound 4] | 1.9 ± 0.1 µM | significantly reduced cell death | 0.7 ± 0.1 μmol of Trolox equivalents/μmol of tested compound | show cytotoxicity | 0.57 ± 0.2 µM | M | 26% | > 10 µM |  |  |  |  |  |  |  |  |
| c1ccc2cc(COc3nn(Cc4ccc5ccccc5c4)c4ccc(NCCCN5CCCCC5)cc34)ccc2c1 [Compound 6] | 3.4 ± 0.2 µM | significantly reduced cell death | 0 μmol of Trolox equivalents/μmol of tested compound |  | 3.7 ± 0.3 µM | M |  | 9 ± 1 µM |  | able to attenuate LPS-induced NO production | inhibited NO production | did not show any significant cytotoxic effect |  |  |  |  |
| Nc1ccc2c(c1)c(OCc1cccc3ccccc13)nn2Cc1ccccc1 [Compound 32] | > 10 µM |  | 1.0 ± 0.1 μmol of Trolox equivalents/μmol of tested compound |  | > 10 µM |  |  | > 10 µM |  |  |  |  |  |  |  |  |
| Nc1ccc2c(c1)c(OCc1cccc3ccccc13)nn2Cc1ccc(Cl)cc1 [Compound 33] | 5.8 ± 0.5 µM |  | 1.0 ± 0.1 μmol of Trolox equivalents/μmol of tested compound |  | > 10 µM |  |  | > 10 µM |  |  |  |  |  |  |  |  |
| Nc1ccc2c(c1)c(OCc1cccc3ccccc13)nn2Cc1ccc(Cl)c(Cl)c1 [Compound 34] |  |  | 0.33 ± 0.05 μmol of Trolox equivalents/μmol of tested compound |  | > 10 µM |  |  | 3.5 ± 0.6 µM |  |  |  |  | 72% | very slight inhibition | 32% |  |
| COc1cc2c(cc1OC)C(=O)C(CC1CCN(Cc3ccccc3)CC1)C2 (stereo not drawn) [donepezil, reference compound] |  |  |  |  |  |  |  |  |  |  |  |  |  |  |  | mixed type |
